Measurements reported in patent US6693114B2, “4-oxo-1,4-dihydro[1,8]naphthyridine-3-carboxamides as antiviral agents” (Pharmacia & Upjohn Company, priority 2000, dated 2004).

Assays:
[1] = biological target: T1, HCMV polymerase (Human cytomegalovirus, UniProt P08546); assay: HCMV polymerase assay (scintillation proximity assay, modified version); assay type: biochemical; conditions: for IC50: modified HCMV polymerase SPA assay, compounds diluted in 100% DMSO, 4.5 mM DTT
T1 construct: made in house; host or cells: recombinant baculovirus-infected SF-9 cells
Experimental: The HCMV polymerase assay is performed using a scintillation proximity assay (SPA) as described in several references, such as N. D. Cook, et al., Pharmaceutical Manufacturing International, pages 49-53 (1992); K. Takeuchi, Laboratory Practice, September issue (1992); U.S. Pat. No. 4,568,649 (1986); which are incorporated by reference herein. Reactions are performed in 96-well plates. The assay is conducted in 100 μl volume with 5.4 mM HEPES (pH 7.5), 11.7 mM KCl, 4.5 mM MgCl2, 0.36 mg/ml BSA, and 90 nM ^3H-dTTP. Assays are run with and without CHAPS, (3-[(3-cholamidopropyl)-dimethylammonio]-1-propane-sulfonate) at a final concentration of 2 mM. HCMV polymerase is diluted in enzyme dilution buffer containing 50% glycerol, 250 mM NaCl, 10 mM HEPES (pH 7.5), 100 μg/ml BSA, and 0.01% sodium azide. The HCMV polymerase, which is expressed in recombinant baculovirus-infected SF-9 cells and purified according to literature procedures, is added at 10% (or 10 μl) of the final reaction volume, i.e., 100 μl. Compounds are diluted in 50% DMSO and 10 μl are added to each well. Control wells contain an equivalent concentration of DMSO. Unless noted otherwise, reactions are initiated via the addition of 6 nM biotinylated poly(dA)-oligo(dT) template/primer to reaction mixtures containing the enzyme, substrate, and compounds of interest. Plates are incubated in a 25° C. or 37° C. H2O bath and terminated via the addition of 40 μl/reaction of 0.5 M EDTA (pH 8) per well. Reactions are terminated within the time-frame during which substrate incorporation is linear and varied depending upon the enzyme and conditions used, i.e., 30 min. for HCMV polymerase. Ten μl of streptavidin-SPA beads (20 mg/ml in PBS/10% glycerol) are added following termination of the reaction. Plates are incubated 10 min. at 37° C., then equilibrated to room temperature, and counted on a Packard Topcount. Linear regressions are performed and IC50's are calculated using computer software.
A modified version of the above HCMV polymerase assay is performed as described above, but with the following changes: Compounds are diluted in 100% DMSO until final dilution into assay buffer. In the previous assay, compounds are diluted in 50% DMSO. 4.5 mM dithiotherotol (DTT) is added to the polymerase buffer. […] All results are listed as Polymerase IC50 (μM) values. In Table 1, the term “nd” refers to activity data not determined.

[2] = biological target: HSV polymerase (Human herpesvirus 1, UniProt P04293); assay: HSV polymerase assay (Table 1, Polymerase IC50); assay type: biochemical; conditions: modified polymerase SPA assay
[3] = biological target: VZV polymerase (Varicella-zoster virus, UniProt P09252); assay: VZV polymerase assay (Table 1, Polymerase IC50); assay type: biochemical; conditions: modified polymerase SPA assay
Sequence of VZV polymerase (P09252 whole entry): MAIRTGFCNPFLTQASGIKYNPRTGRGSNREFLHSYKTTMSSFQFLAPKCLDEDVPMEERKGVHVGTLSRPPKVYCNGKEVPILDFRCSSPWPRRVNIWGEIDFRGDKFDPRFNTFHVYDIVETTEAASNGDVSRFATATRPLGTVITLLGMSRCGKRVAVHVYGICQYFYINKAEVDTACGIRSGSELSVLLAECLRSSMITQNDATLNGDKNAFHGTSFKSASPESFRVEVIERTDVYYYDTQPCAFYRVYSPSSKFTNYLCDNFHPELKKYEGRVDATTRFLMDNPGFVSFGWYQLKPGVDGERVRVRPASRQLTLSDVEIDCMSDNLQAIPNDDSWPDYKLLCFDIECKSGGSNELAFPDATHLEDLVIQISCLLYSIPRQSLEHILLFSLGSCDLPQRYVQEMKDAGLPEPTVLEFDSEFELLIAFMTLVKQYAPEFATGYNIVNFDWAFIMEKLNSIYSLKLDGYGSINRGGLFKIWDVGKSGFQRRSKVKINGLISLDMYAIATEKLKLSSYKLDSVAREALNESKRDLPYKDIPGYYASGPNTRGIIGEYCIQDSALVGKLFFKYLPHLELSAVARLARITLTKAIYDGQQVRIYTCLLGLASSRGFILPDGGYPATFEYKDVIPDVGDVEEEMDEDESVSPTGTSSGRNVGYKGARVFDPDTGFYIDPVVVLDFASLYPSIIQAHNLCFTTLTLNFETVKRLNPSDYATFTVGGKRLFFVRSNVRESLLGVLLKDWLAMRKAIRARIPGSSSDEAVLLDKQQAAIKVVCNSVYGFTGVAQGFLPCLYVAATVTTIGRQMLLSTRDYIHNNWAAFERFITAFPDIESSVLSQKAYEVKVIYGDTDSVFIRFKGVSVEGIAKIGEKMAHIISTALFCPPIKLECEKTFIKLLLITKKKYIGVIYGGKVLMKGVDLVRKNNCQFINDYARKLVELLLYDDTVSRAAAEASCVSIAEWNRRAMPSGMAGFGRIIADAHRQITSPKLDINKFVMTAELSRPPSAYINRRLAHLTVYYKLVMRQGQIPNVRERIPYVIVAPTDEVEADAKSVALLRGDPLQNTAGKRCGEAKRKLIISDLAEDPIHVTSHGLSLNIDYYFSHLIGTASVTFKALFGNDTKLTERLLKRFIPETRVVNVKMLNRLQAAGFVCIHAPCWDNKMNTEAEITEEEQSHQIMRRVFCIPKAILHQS

T1 sequence (P08546 whole entry): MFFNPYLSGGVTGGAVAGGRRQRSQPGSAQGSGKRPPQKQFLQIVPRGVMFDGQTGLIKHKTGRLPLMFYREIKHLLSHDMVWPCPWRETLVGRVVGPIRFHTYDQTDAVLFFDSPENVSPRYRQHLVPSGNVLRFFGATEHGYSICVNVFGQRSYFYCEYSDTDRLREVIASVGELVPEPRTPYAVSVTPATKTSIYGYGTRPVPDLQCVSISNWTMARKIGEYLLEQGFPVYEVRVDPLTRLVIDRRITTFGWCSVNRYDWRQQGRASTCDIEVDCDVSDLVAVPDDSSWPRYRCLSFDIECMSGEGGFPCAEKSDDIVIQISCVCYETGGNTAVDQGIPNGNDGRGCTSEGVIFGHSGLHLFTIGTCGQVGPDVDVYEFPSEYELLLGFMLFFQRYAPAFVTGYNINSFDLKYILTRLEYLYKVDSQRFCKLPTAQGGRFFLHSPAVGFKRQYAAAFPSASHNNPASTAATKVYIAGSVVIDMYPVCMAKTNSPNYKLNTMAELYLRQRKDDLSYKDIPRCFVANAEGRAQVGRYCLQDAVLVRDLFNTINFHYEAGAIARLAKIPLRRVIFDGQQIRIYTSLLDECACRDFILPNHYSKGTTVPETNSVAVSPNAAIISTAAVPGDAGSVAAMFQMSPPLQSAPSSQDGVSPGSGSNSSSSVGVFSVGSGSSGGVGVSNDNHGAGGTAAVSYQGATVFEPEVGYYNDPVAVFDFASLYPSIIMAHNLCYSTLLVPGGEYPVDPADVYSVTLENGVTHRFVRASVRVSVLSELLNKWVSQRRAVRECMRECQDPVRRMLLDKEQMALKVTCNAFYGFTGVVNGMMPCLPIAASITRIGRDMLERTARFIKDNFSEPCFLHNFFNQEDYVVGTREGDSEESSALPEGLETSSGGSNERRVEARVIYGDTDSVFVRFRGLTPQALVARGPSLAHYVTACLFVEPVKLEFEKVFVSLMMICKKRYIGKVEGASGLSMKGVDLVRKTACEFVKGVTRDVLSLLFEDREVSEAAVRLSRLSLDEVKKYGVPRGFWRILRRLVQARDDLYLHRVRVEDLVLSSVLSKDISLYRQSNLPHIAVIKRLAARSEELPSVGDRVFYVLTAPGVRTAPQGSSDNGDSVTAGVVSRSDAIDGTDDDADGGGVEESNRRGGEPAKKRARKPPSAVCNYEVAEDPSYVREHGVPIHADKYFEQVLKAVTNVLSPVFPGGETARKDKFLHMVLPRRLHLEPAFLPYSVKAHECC
Sequence of HSV polymerase (P04293 whole entry): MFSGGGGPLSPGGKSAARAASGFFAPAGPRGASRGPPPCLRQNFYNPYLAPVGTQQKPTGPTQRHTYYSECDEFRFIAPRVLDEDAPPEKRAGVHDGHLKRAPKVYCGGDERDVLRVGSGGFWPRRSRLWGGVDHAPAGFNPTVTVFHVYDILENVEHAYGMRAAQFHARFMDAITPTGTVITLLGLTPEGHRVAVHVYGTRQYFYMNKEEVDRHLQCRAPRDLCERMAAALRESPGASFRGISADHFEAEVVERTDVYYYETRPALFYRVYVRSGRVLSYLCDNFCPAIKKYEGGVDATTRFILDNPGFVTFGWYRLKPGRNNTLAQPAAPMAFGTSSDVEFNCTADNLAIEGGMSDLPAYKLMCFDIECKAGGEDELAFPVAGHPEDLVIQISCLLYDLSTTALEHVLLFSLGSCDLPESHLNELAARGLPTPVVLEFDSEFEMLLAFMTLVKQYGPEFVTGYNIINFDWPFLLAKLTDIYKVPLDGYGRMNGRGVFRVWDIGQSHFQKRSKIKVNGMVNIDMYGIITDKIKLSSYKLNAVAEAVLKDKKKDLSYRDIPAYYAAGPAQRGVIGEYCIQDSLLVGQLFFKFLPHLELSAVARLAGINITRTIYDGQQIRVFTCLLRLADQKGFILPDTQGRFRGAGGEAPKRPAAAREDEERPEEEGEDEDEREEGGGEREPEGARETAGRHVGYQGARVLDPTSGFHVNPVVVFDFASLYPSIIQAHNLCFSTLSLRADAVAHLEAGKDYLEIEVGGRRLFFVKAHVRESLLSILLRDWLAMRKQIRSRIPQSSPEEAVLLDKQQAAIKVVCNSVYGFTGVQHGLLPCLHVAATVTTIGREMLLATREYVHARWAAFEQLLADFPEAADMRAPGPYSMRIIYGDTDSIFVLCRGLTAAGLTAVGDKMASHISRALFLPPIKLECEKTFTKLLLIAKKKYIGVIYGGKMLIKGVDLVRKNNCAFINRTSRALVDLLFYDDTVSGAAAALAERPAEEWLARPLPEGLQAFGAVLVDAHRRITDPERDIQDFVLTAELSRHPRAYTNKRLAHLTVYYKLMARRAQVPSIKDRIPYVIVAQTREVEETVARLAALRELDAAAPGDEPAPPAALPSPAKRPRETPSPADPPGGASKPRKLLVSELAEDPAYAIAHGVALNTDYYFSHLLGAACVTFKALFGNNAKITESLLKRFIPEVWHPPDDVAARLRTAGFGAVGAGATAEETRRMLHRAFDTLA

Row | melting point | IC50 [1] | IC50 [2] | IC50 [3] | inhibition at 20 µM ([1]; at 20 μM) | SMILES
1 | – | 17100 nM | – | – | – | Cn1cc(C(=O)NCc2ccc(Cl)cc2)c(=O)c2ccc(=O)[nH]c21 [Example 5, N-(4-Chlorobenzyl)-1-methyl-4,7-dioxo-1,4,7,8-tetrahydro[1,8]naphthyridine-3-carboxamide]
2 | – | 1170 nM | – | – | – | COc1nc2c(cc1C#CCO)c(=O)c(C(=O)NCc1ccc(Cl)cc1)cn2C [Example 6, N-(4-chlorobenzyl)-6-(3-hydroxy-1-propynyl)-7-methoxy-1-methyl-4-oxo-1,4-dihydro[1,8]naphthyridine-3-carboxamide]
3 | – | 460 nM | – | – | – | COc1nc2c(cc1CCCO)c(=O)c(C(=O)NCc1ccc(Cl)cc1)cn2C [Example 7, N-(4-Chlorobenzyl)-6-(3-hydroxypropyl)-7-methoxy-1-methyl-4-oxo-1,4-dihydro[1,8]naphthyridine-3-carboxamide]
4 | – | – | – | – | 37% | CCOC(=O)c1cc2c(=O)c(C(=O)NCc3ccc(Cl)cc3)cn(C)c2nc1OC [Example 8, Ethyl 6-{[(4-chlorobenzyl)amino]carbonyl}-2-methoxy-8-methyl-5-oxo-5,8-dihydro[1,8]naphthyridine-3-carboxylate]

The next lines start with the compound.

Row | SMILES | melting point | IC50 [1] | IC50 [2] | IC50 [3] | inhibition at 20 µM ([1]; at 20 μM)
5 | Cc1nc2c(cc1Br)c(=O)c(C(=O)NCc1ccc(Cl)cc1)cn2C [Example 1, 6-bromo-N-(4-chlorobenzyl)-1,7-dimethyl-4-oxo-1,4-dihydro[1,8]naphthyridine-3-carboxamide] | 266 to 268 °C | – | – | – | –
6 | Cc1nc2c(cc1C#CCO)c(=O)c(C(=O)NCc1ccc(Cl)cc1)cn2C [Example 2, N-(4-chlorobenzyl)-6-(3-hydroxy-1-propynyl)-1,7-dimethyl-4-oxo-1,4-dihydro[1,8]naphthyridine-3-carboxamide] | 217 to 218 °C | 1800 nM | 1900 nM | 1100 nM | –
7 | Cc1nc2c(cc1CCCO)c(=O)c(C(=O)NCc1ccc(Cl)cc1)cn2C [Example 3, N-(4-chlorobenzyl)-6-(3-hydroxypropyl)-1,7-dimethyl-4-oxo-1,4-dihydro[1,8]naphthyridine-3-carboxamide] | 176 to 177 °C | 2700 nM | 2400 nM | 1400 nM | –
8 | COc1nc2c(cc1I)c(=O)c(C(=O)NCc1ccc(Cl)cc1)cn2C [Example 4, N-(4-Chlorobenzyl)-6-iodo-7-methoxy-1-methyl-4-oxo-1,4-dihydro[1,8]naphthyridine-3-carboxamide] | – | 22300 nM | – | – | –
